Results: patent publication US20260297129A1, “PEPTIDES AS SELECTIVE IL-23 RECEPTOR INHIBITORS” (SANOFI, priority 2023, published 2026)
Values after ≈ are worked out from the molar mass of the structure shown. Read-outs that look alike come from different tables or passages of the source. Numbered stars: 1 amine (or outer) side, 2 acyl side, 3 side chain; on linkers, the order of the positions; unused ones are H or OH. Bridge positions count the residues as written; N and C are the ends. Square brackets hold non-standard residues; d marks the D form. Peptide text beside a SMILES is read from it. * marks the point of attachment. Lys(Me,(CH2)4NMe(CH2)5CO) = CN(CCCCCC(=O)[*:3])CCCCN(C)CCCC[C@H](N[*:1])C(=O)[*:2]; Lys(Me,(CH2)4NMe(CH2)4CO) = CN(CCCCC(=O)[*:3])CCCCN(C)CCCC[C@H](N[*:1])C(=O)[*:2]; Trp(7-Me) = Cc1cccc2c(C[C@H](N)C(=O)O)c[nH]c12; Trp(1-Me) = Cn1cc(C[C@H](N)C(=O)O)c2ccccc21; NH(2-(3-pyridyl)ethyl) = c1cncc(CCN*)c1; αMeLys(Me2) = CN(C)CCCC[C@](C)(N)C(=O)O; 2Nal = N[C@@H](Cc1ccc2ccccc2c1)C(=O)O; 3Pal = N[C@@H](Cc1cccnc1)C(=O)O; Thp = NC1(C(=O)O)CCOCC1; Me2NCH2CH2 = CN(C)CC*; Aib = CC(C)(N)C(=O)O; Sar = CNCC(=O)O

Experiments:
[1] = Solubility of peptide compounds in buffer formulations (Table 5); format: physicochemical; details: target 1 mg/ml
Method: Prior to the solubility measurement of a peptide batch, its purity was determined through UHPLC/MS method A.
(§1) For solubility testing the target concentration was 1 mg pure compound/ml. Therefore, solutions from solid samples were prepared in a buffer system at a concentration of 1 mg/mL compound. The solid samples were obtained by drying down aliquots of a freshly prepared dimethyl sulfoxide stock solution using a THERMO SPEEDVAC vacuum centrifuge. The dry down time was 3 hours.
The following buffer systems were applied: • Solubility buffer system A) 50 mM HCl pH 1.2 • Solubility buffer system B) 50 mM phosphate buffer pH 6.5 • Solubility buffer system C) 50 mM phosphate buffer pH 7.4 • UHPLC-UV was performed using analytical method A after 2 hours of gentle agitation from the filtered (0.45 μm filter plates) solutions, which were obtained by 10 mins of centrifugation forced filtration at 1500 RCF (relative centrifugal acceleration).
The solubility was determined by the comparison of the UV peak area of 2 μL-injections of a buffered sample diluted 1:10 with a standard curve of a dimethyl sulfoxide reference sample of known concentration. The different extinction coefficients were taken into account for the calculation.

[2] = test system: IL-23 induced STAT3 signaling (IL-23 receptor) in HEK-Blue IL-23 cells; assay: Inhibition of IL-23 induced STAT3 signaling in HEK-Blue IL-23 cells, SEAP reporter (Table 9); format: cell-based; details: human IL23 0.25 ng/ml, overnight, read-out: Inhibition of IL-23 induced pSTAT3 (IC50 nM)
Source text: HEK-Blue™ IL-23 cells (INVIVOGEN) are designed for the detection of bioactive human (hIL-23) and murine IL-23 (mIL-23) by monitoring the activation of the STAT3 pathway. Binding of IL-23 to its receptor on the surface of HEK-Blue™ IL-23 cells triggers a signaling cascade leading to the activation of STAT3 and the subsequent production of secreted embryonic alkaline phosphatase (SEAP). This can be readily assessed using QUANTI-Blue™ Solution, a SEAP detection reagent.
HEK-Blue™ IL-23 cells were cultured as described by INVIVOGEN.
On the first day of assay 10 μL of the HEK-BLUE IL23 cell suspension (final concentration: 10,000 cells/well) and 10 μl of serially diluted peptides solutions were dispensed into a 384-well assay plate. After pre-incubation of the reaction mixtures at 37° C./5% CO2/95% humidity for 60 minutes, 10 μl of the humanIL23 cytokine (final concentration: 0.25 ng/ml) was added to each well for the STAT3 signaling activation. The plate was incubated overnight at 37° C./5% CO2/95% humidity.
On the second day 20 μl per well of QUANTI-BLUE detection solution (prepared according to the manufacture instruction) was dispensed into a new 384-well plate and followed by the transfer of 5 μl supernatant of the overnight incubated cell/sample mixtures. After incubation of 45 min at room temperature signals were measured with PHERASTAR (BMG) at OD 620-655 nm.
Dose response data were fitted with XLfit.

[3] = Chemical stability (relative purity loss) of peptide compounds in buffer formulations (Table 6); format: physicochemical; details: 2° C. and 37° C.
Method: Purity of a peptide batch was determined through UHPLC/MS method A prior to chemical stability measurement.
as §1, with “stability assessment,” for “solubility testing”, “0.5” for “1”, “acetonitrile” for “dimethyl sulfoxide”
The following buffer systems were applied: • Solubility buffer system A): 50 mM HCl pH 1.2+Acetonitrile (3:1). • Solubility buffer system B): 50 mM phosphate buffer pH 6.5+Acetonitrile (3:1). • Solubility buffer system C): 50 mM phosphate buffer pH 7.4+Acetonitrile (3:1). • Prepared solutions were stored for 24 hours at 2° C. and 37° C.
After this time course, the samples were centrifuged for 15 min at 2500 RCF to create a 1:5 dilution of the supernatant. Then 2 μl of the dilution were analyzed with UHPLC-UV applying method A.
The chemical stability was rated through the relative loss of purity calculated by the equation: […]

[4] = Buffer pH 1.1 (head; method: 50 mM HCl pH 1.2), 2 h agitation, read-out: Solubility, Buffer pH 1.1
[5] = aqueous buffer, 50 mM phosphate buffer pH 6.5, 2 h agitation, read-out: Solubility, Buffer pH 6.5
[6] = aqueous buffer, 50 mM phosphate buffer pH 7.4, 2 h agitation, read-out: Solubility, Buffer pH 7.4

Row | solubility at 2 h [1, 4] [µg/mL] | solubility at 2 h [1, 5] [µg/mL] | solubility at 2 h [1, 6] [µg/mL] | degraded at 24 h ([3]; 50 mM phosphate buffer pH 6.5 + acetonitrile (3:1), read-out: Chemical stability (relative purity loss), Buffer pH 6.5) [%] | degraded at 24 h ([3]; 50 mM phosphate buffer pH 7.4 + acetonitrile (3:1), read-out: Chemical stability (relative purity loss), Buffer pH 7.4) [%] | degraded at 24 h ([3]; 50 mm hcl + acetonitrile, Buffer pH 1.1 (head; method: 50 mM HCl pH 1.2 + acetonitrile 3:1), read-out: Chemical stability (relative purity loss), Buffer pH 1.1) [%] | SMILES | IC50 [2] [nM]
1 | ≥ 970 | ≥ 890 | ≥ 880 | – | – | – | CC(=O)NCCCC[C@@H]1NC(=O)[C@H](Cc2cn(C)c3ccccc23)NC(=O)CCCCCN(C)CCCCN(C)CCCC[C@@H](C(=O)NCC(=O)NCCc2cccnc2)NC(=O)C(C)(C)NC(=O)[C@H](Cc2ccc3ccccc3c2)NC(=O)[C@H](Cc2ccc(OCCN(C)C)cc2)NC(=O)C2(CCOCC2)NC1=O [compound 23] ([Trp(1-Me)]K(Ac)[Thp]Y(Me2NCH2CH2)[2Nal][Aib][Lys(Me,(CH2)4NMe(CH2)5CO)]G-{NH(2-(3-pyridyl)ethyl)}; lactam N-7) | 39.2
2 | ≥ 1360 | ≥ 1130 | ≥ 1120 | – | – | – | CC(=O)NCCCC[C@@H]1NC(=O)[C@H](Cc2c[nH]c3c(C)cccc23)NC(=O)CCCCN(C)CCCCN(C)CCCC[C@@H](C(=O)N[C@@H](CO)C(=O)N[C@@H](Cc2cccnc2)C(=O)N(C)CC(N)=O)NC(=O)[C@](C)(CCCCN(C)C)NC(=O)[C@H](Cc2ccc3ccccc3c2)NC(=O)[C@H](Cc2ccc(OCCN(C)C)cc2)NC(=O)C2(CCOCC2)NC1=O [compound 44] ([Trp(7-Me)]K(Ac)[Thp]Y(Me2NCH2CH2)[2Nal][αMeLys(Me2)][Lys(Me,(CH2)4NMe(CH2)4CO)]S[3Pal][Sar]-NH2; lactam N-7) | 1.19
3 | ≥ 1000 | ≥ 890 | 850 (≈ 516 µM) | 0 | 0 | 3.7 | CC(=O)NCCCC[C@@H]1NC(=O)[C@H](Cc2c[nH]c3c(C)cccc23)NC(=O)CCCCN(C)CCCCN(C)CCCC[C@@H](C(=O)N[C@@H](CO)C(=O)N[C@@H](Cc2cccnc2)C(=O)N(C)CC(N)=O)NC(=O)C(C)(C)NC(=O)[C@H](Cc2ccc3ccccc3c2)NC(=O)[C@H](Cc2ccc(OCCN(C)C)cc2)NC(=O)C2(CCOCC2)NC1=O [compound 39] ([Trp(7-Me)]K(Ac)[Thp]Y(Me2NCH2CH2)[2Nal][Aib][Lys(Me,(CH2)4NMe(CH2)4CO)]S[3Pal][Sar]-NH2; lactam N-7) | 1.78
4 | ≥ 1060 | ≥ 1030 | ≥ 1030 | – | – | – | CN(C)CCCC[C@]1(C)NC(=O)[C@H](Cc2ccc3ccccc3c2)NC(=O)[C@H](Cc2ccc(OCCN(C)C)cc2)NC(=O)C2(CCOCC2)NC(=O)[C@H](CCC(N)=O)NC(=O)[C@H](Cc2cn(C)c3ccccc23)NC(=O)CCCCN(C)CCCCN(C)CCCC[C@@H](C(=O)N[C@@H](CO)C(=O)N[C@@H](Cc2cccnc2)C(=O)N(C)CC(N)=O)NC1=O [compound 45] ([Trp(1-Me)]Q[Thp]Y(Me2NCH2CH2)[2Nal][αMeLys(Me2)][Lys(Me,(CH2)4NMe(CH2)4CO)]S[3Pal][Sar]-NH2; lactam N-7) | 7.83
